Experimental data: US20040131497A1, “PROCESS FOR STERILIZATION OF BIOLOGICAL COMPOSITIONS CONTAING PROTEIN” (priority 2002, published 2004)
Read-outs that look alike come from different tables or passages of the source.

Key:
PRV=pseudorabies virus = conditions: fibrinogen 5 g/L, UVC 254 nm, eight passes
[1] = cited from earlier work
Factor VIII = assay type: biochemical

C[C@@H]1O[C@@H](OC[C@H]2O[C@@H](Oc3c(-c4ccc(O)c(O)c4)oc4cc(O)cc(O)c4c3=O)[C@H](O)[C@@H](O)[C@@H]2O)[C@H](O)[C@H](O)[C@H]1O [rutin, reference compound]
Log reduction PRV (PRV=pseudorabies virus; stabiliser 0.5 mM): 3 Log
Log reduction PRV (PRV=pseudorabies virus; stabiliser 1 mmol/l): 3 Log
Log reduction PRV (PRV=pseudorabies virus; stabiliser 2 mmol/l): 2.5 Log
solubility in aqueous solutions [1]: poorly soluble in aqueous solutions

COc1cc(C=O)ccc1O [vanillin]
Log reduction PRV (PRV=pseudorabies virus; stabiliser 0.5 mM): 5 Log
Log reduction PRV (PRV=pseudorabies virus; stabiliser 1 mmol/l): 5.5 Log
Log reduction PRV (PRV=pseudorabies virus; stabiliser 2 mmol/l): 5.5 Log
PRV titer reduction (PRV): 5 Log
decrease in FVIII activity (Factor VIII): 10%
